Experimental data reported in patent US20240218019A1, “METHODS AND COMPOSITIONS COMPRISING MHC CLASS I PEPTIDES” (BOARD OF REGENTS, THE UNIVERSITY OF TEXAS SYSTEM, priority 2021, published 2024).

What was measured:
[1] = tested on: PBMCs from LS Rhesus macaques; assay: IFNγ ELISpot assay with PBMCs from LS Rhesus macaques; assay type: cell-based; details: stimulated 48 h (FIG. 22B)
Procedure: FIG. 22A-B. Validation of the predicted neoAg in LS Rhesus macaques. A) Immunogenicity of neoAg peptide pools and deconvoluted neoAg with ELISpot assay. PBMCs from LS Rhesus macaques (n=4) were stimulated with […] and 12 individual peptides from the pools, concavalin A (+ve control), and DMSO (−ve control) for 48 h. B) ELISpot images. […] Spot forming Units for IFNγ secretion were analyzed and quantitated by ELISpot plate reader.
Since the ultimate goal is to develop a universal LS-cancer vaccine. the inventors then tested the immunogenicity of the ELISpot-reactive peptides in PBMCs from LS Rhesus macaques who carry a pathogenic mutation in the MLH1 gene with pathology similar to human LS. These animals. housed at MD Anderson Cancer Center, spontaneously develop CRC and serve as an ideal preclinical LS model for immune-interception strategies with neoAg vaccines. PBMCs from four different LS Rhesus were stimulated with four peptide pools and 12 individual peptides for ELISpot assays as indicated in FIG. 22A.

[2] = LS patients, long-term exposure; cited from earlier work

| Compound | immunogenicity of deconvoluted peptides in stimulated rhesus PBMC (ELISpot) [1] | resident immune cells within the mucosal tissue of the colon [2] |
| --- | --- | --- |
| CELSR2: deconvoluted neoAg peptide from CELSR2, tested in LS Rhesus PBMCs (RLDKGNFAGA) | except PLOD1 and CELSR2 were determined immunogenic | – |
| COc1ccc2cc([C@H](C)C(=O)O)ccc2c1 [naproxen] | – | increase of resident immune cells within the mucosal tissue of the colon |
